Results reported in patent US7700584B2 (Hangzhou Minsheng Pharmaceuticals Co., Ltd., priority 2004, dated 2010).
Like-named read-outs stand apart in the source and are kept apart here.

Columns and labels:
HepG2 cells = test: Cell status of HepG2 cells treated with sample (HBV screening); assay type: cell-based; conditions: 200 μg/ml, HepG2, four days after infection
Procedure: 1.5 Screening for the agents: The HepG2 cells were counted and 1.5×10^4 cells/well were seeded into a 96-well plate. After incubation overnight in an atmosphere of CO2 at 37° C., each of the experimental samples in a given concentration was added to the cells. After incubation at 37 °C for 24 hrs, the HepG2 treated with the samples were infected with vAcGFPHBVc of 100 MOI. A negative control and a positive control were also included. Four days after infection, the growth of the cells were observed, and the HBV e antigen in the supernatant was measured with the HBV e antigen diagnostic kit.

[1] = test system: MCF-7 human mammary adenocarcinoma; test: In vitro inhibition rate to tumor cells (MTT), MCF-7; assay type: cell-based; conditions: for inhibition rate, Results (%) MCF-7: 50 μg/ml; for inhibition at 50 µg/mL: Homo sapiens, MCF7, 50 μg/ml, read-out: inhibition rate, Results (%) MCF-7
[2] = test system: U-937 human histocytic lymphoma; test: In vitro inhibition rate to tumor cells (MTT), U-937; assay type: cell-based; conditions: for inhibition at 50 µg/mL: Homo sapiens, U-937, 50 μg/ml, read-out: inhibition rate, Results (%) U-937; for inhibition rate, Results (%) U-937: 50 μg/ml
[3] = test system: Hela human cervical carcinoma; test: In vitro anti-tumor IC50 (MTT), Hela; assay type: cell-based; conditions: Homo sapiens, HeLa; Table 4; read-out: IC50 (ug/ml) against tumor cell lines, Hela
[4] = test system: Hela human cervical carcinoma; test: In vitro inhibition rate to tumor cells (MTT), Hela; assay type: cell-based; conditions: 50 μg/ml; for inhibition at 50 µg/mL: Homo sapiens, HeLa, read-out: inhibition rate, Results (%) Hela
Hepatitis B virus (HBV) = assay type: cell-based; conditions: 200 μg/ml; for (Value of the positive control - Measured Value) Value of the positive control × 100%: decrease of HBeAg relative to positive control; for OD450 of HBeAg: supernatant four days after infection, positive control 1.917, negative 0.057
[5] = test system: Bel-7402 human hepatic carcinoma; test: In vitro inhibition rate to tumor cells (MTT), Bel-7402; assay type: cell-based; conditions: for inhibition rate, Results (%) Bel-7402: 50 μg/ml; for inhibition at 50 µg/mL: Homo sapiens, Bel-7402, 50 μg/ml, read-out: inhibition rate, Results (%) Bel-7402
[6] = test system: mouse grafted uterine cervix cancer U14; test: Activity against mouse grafted uterine cervix cancer U14; assay type: in vivo, Kunming mice; conditions: for Tumor weight: X ± SD, n = 10
Procedure: The experiments were performed according to “Guideline for New Drugs (Western medicines) in Pre-clinical Stages” issued by Bureau of Drug Policy & Administration of the People's Republic of China, and the relevant methods in “Methodology of Pharmaceutical Experiments”, Xu Shuyun et al. ed. 120 male Kunming mice weighting […] were allowed to grow 3 days. No abnormality was observed. The mice were routinely inoculated in oxter with mouse sarcoma S-180, and weighted 4 hrs. after inoculation. The mice were randomly divided into 12 groups, 10 mice/group. Group 1 was given 0.3 ml of physiological saline as negative control; Group 2 was given 5-FU as positive control, 0.6 mg/mouse; Group 3 was given hydroxycamptothecine as positive control, 0.02 mg/mouse. Groups 4, 5 and 6 were injected with 10% Compound 6, 0.4 ml/mouse, 0.2 ml/mouse, and 0.1 ml/mouse, respectively. Groups 7, 8 and 9 were injected with 10% Compound 8, 0.4 ml/mouse, 0.2 ml/mouse, and 0.1 ml/mouse, respectively. Groups 10, 11, and 12 were injected with 10% Compound 20, 0.4 ml/mouse, 0.2 ml/mouse, and 0.1 ml/mouse, respectively. The tested compounds were administered on the next day after inoculation, once a day on alternate days, 6 doses totally administered. On the next day after the end dose, the mice were weighed and sacrificed. After the tumor was excised, body weight and tumor weight were recorded. The tumor inhibition rate was calculated based on the following formula: [(average tumor weight of the control groups−average tumor weight of the experimental groups)/average tumor weight of the control groups]×100%. The data was processed statistically. The above experiments were repeated three times.
The experiments were identical with the experiments for activity against mouse grafted sarcoma S-180, except the following:
(1) the tumor cell line inoculated was mouse grafted uterine cervix cancer U14;
(2) all the mice were female.

MDCK (dog kidney) cells = test: Toxicity TC50 of the samples in MDCK cells (influenza screening); conditions: concentration of 50% toxicity
[7] = U14, first experiment, 10 mg/kg
[8] = U14, first experiment, 20 mg/kg
[9] = U14, first experiment, 40 mg/kg
[10] = U14, second experiment, 10 mg/kg
[11] = U14, second experiment, 20 mg/kg
[12] = U14, second experiment, 40 mg/kg
[13] = U14, third experiment, 10 mg/kg
[14] = U14, third experiment, 20 mg/kg
[15] = U14, third experiment, 40 mg/kg

Compound: C=C1CC2(OS(=O)(=O)O)OC3(CC2C(C)C)C(C)CCC13 (stereo not drawn) [Compound 20, Curcumol sulfonate]
- Cell status (HepG2 cells): Normal
- inhibition rate, Results (%) MCF-7 ([1]; Table 1): 18.9%
- inhibition rate, Results (%) MCF-7 ([1]; Table 2 (repeated screening)): 16.32%
- inhibition rate, Results (%) MCF-7 ([1]; Table 3 (repeated screening)): 14.23%
- inhibition at 50 µg/mL ([2]; Table 1): 89.2%
- inhibition at 50 µg/mL ([2]; Table 2 (repeated screening)): 90.3%
- inhibition at 50 µg/mL ([2]; Table 3 (repeated screening)): 90%
- IC50 [3]: 0.89 µg/mL
- inhibition at 50 µg/mL ([4]; Table 1): 94.2%
- inhibition at 50 µg/mL ([4]; Table 2 (repeated screening)): 90.6%
- inhibition at 50 µg/mL ([4]; Table 3 (repeated screening)): 92.5%
- (Value of the positive control - Measured Value) Value of the positive control × 100% (Hepatitis B virus (HBV)): −14.8148%
- OD450 of HBeAg (Hepatitis B virus (HBV)): 2.201
- inhibition rate, Results (%) Bel-7402 ([5]; Table 2 (repeated screening)): 5.36%
- inhibition rate, Results (%) Bel-7402 ([5]; Table 3 (repeated screening)): 1.23%
- inhibition at 50 µg/mL ([5]; Table 1): 7.89%

Compound: C=C1CC2(OS(=O)(=O)[O-])OC3(CC2C(C)C)C(C)CCC13.[Na+] (stereo not drawn) [Compound 21, Curcumol sodium sulfonate]
- inhibition rate, Results (%) MCF-7 ([1]; Table 1): 87.56%
- inhibition rate, Results (%) MCF-7 ([1]; Table 2 (repeated screening)): 85.23%
- inhibition rate, Results (%) MCF-7 ([1]; Table 3 (repeated screening)): 87.58%
- Average weight(g)-after administration [6, 7]: 22.1 g
- Inhibition rate (%) [6, 7]: 52.1%
- Tumor weight [6, 7]: 1.68 ± 0.29 g
- Average weight(g)-after administration [6, 8]: 21.0 g
- Inhibition rate (%) [6, 8]: 56.7%
- Tumor weight [6, 8]: 1.52 ± 0.41 g
- Average weight(g)-after administration [6, 9]: 21.1 g
- Inhibition rate (%) [6, 9]: 71.8%
- Tumor weight [6, 9]: 0.99 ± 0.31 g
- Average weight(g)-after administration [6, 10]: 22.5 g
- Inhibition rate (%) [6, 10]: 53.2%
- Tumor weight [6, 10]: 1.59 ± 0.29 g
- Average weight(g)-after administration [6, 11]: 21.1 g
- Inhibition rate (%) [6, 11]: 57.1%
- Tumor weight [6, 11]: 1.46 ± 0.41 g
- Average weight(g)-after administration [6, 12]: 21.0 g
- Inhibition rate (%) [6, 12]: 73.8%
- Tumor weight [6, 12]: 0.89 ± 0.31 g
- Average weight (g)-after administration [6, 13]: 22.0 g
- Inhibition rate (%) [6, 13]: 54.7%
- Tumor weight [6, 13]: 1.64 ± 0.29 g
- Average weight (g)-after administration [6, 14]: 21.0 g
- Inhibition rate (%) [6, 14]: 58.3%
- Tumor weight [6, 14]: 1.51 ± 0.41 g
- Average weight (g)-after administration [6, 15]: 20.1 g
- Inhibition rate (%) [6, 15]: 73.7%
- Tumor weight [6, 15]: 0.95 ± 0.31 g
- inhibitory effect against mouse grafted uterine cervix cancer U14 (in words) ([6]; all the three concentrations, i.v., female mice): good inhibitory effect
- inhibition rate, Results (%) U-937 ([2]; Table 1): 92.04%
- inhibition rate, Results (%) U-937 ([2]; Table 2 (repeated screening)): 89.46%
- inhibition rate, Results (%) U-937 ([2]; Table 3 (repeated screening)): 91.45%
- IC50 [3]: 0.75 µg/mL
- inhibition rate, Results (%) Hela ([4]; Table 1): 91.69%
- inhibition rate, Results (%) Hela ([4]; Table 2 (repeated screening)): 90.11%
- inhibition rate, Results (%) Hela ([4]; Table 3 (repeated screening)): 91.67%
- TC50 (MDCK (dog kidney) cells): >1000 µg/mL
- (Value of the positive control - Measured Value) Value of the positive control × 100% (Hepatitis B virus (HBV)): 92.85%
- OD450 of HBeAg (Hepatitis B virus (HBV)): 0.137
- inhibition rate, Results (%) Bel-7402 ([5]; Table 1): 5.36%
- inhibition rate, Results (%) Bel-7402 ([5]; Table 2 (repeated screening)): 2.13%
- inhibition rate, Results (%) Bel-7402 ([5]; Table 3 (repeated screening)): 3.12%

Compound: CC(C)C1CC23OC1(O)CC(=CBr)C2CCC3C (stereo not drawn) [Compound 17, Curcumol monobromide]
- Cell status (HepG2 cells): Poor
- inhibition at 50 µg/mL ([1]; Table 1): 53.9%
- inhibition at 50 µg/mL ([1]; Table 2 (repeated screening)): 50.3%
- inhibition at 50 µg/mL ([2]; Table 1): 87.2%
- inhibition at 50 µg/mL ([2]; Table 2 (repeated screening)): 85.1%
- IC50 [3]: 1.5 µg/mL
- inhibition at 50 µg/mL ([4]; Table 1): 91.6%
- inhibition at 50 µg/mL ([4]; Table 2 (repeated screening)): 92.4%
- (Value of the positive control - Measured Value) Value of the positive control × 100% (Hepatitis B virus (HBV)): 96.19%
- OD450 of HBeAg (Hepatitis B virus (HBV)): 0.073
- inhibition at 50 µg/mL ([5]; Table 1): -12.4%
- inhibition at 50 µg/mL ([5]; Table 2 (repeated screening)): -10.9%
